Measurements published in patent US11331299B2, “Medicinal use of serrulatane diterpenes” (The University of Sydney, priority 2016, dated 2022).
Like-named read-outs stand apart in the source and are kept apart here.

Test system: 280 human cancer cell lines
Assay: OncoPanel cell proliferation assay (10-day)
Assay type: cell-based
Details: Homo sapiens; for GI50: read-out: Cell Count GI50; for IC50: read-out: Cell Count IC50; for EC50: read-out: Cell Count EC50
[1] = C-4-II, C-4 II, Female GU - Cervix
[2] = C-33-A, C-33A, Female GU - Cervix
[3] = CAL-62, CAL-62, Endocrine - Thyroid
[4] = CCF-STTG1, CCF-STTG1, CNS - Glioma
[5] = CGTH-W-1, CGTH-W-1, Endocrine - Thyroid
[6] = CHP-212, CHP-212, CNS - Neuroblastoma
[7] = COLO-320-HSR, Colo 320 HSR, Colon
[8] = COLO-829, COLO 829, Skin (Melanoma)
[9] = COR-L105, COR-L105, Lung - NSCLC
[10] = Ca-Ski, Ca Ski, Female GU - Ovary

Compound: CC(C)=CCC[C@@H]1C(O)Oc2c(C)cc(O)c3c2[C@H]1CC[C@H]3C (some centres unmarked) [Compound 2, 5,18-epoxyserrulat-14-en-8,18-diol]
- GI50 (BT-474, BT474, Breast): > 30 µM
- IC50 (BT-474, BT474, Breast): > 30 µM
- EC50 (BT-549, BT-549, Breast): 25.8 µM
- GI50 (BT-549, BT-549, Breast): 25.8 µM
- IC50 (BT-549, BT-549, Breast): 25.9 µM
- EC50 (BV-173, BV-173, Leukemia): 9.33 µM
- GI50 (BV-173, BV-173, Leukemia): 9.33 µM
- IC50 (BV-173, BV-173, Leukemia): 9.33 µM
- EC50 (BXPC-3, BxPC-3, Pancreas): 13 µM
- GI50 (BXPC-3, BxPC-3, Pancreas): > 30 µM
- IC50 (BXPC-3, BxPC-3, Pancreas): > 30 µM
- EC50 (BeWo, Placenta): 7.68 µM
- GI50 (BeWo, Placenta): > 30 µM
- IC50 (BeWo, Placenta): > 30 µM
- EC50 (C32, Skin (Melanoma)): 19.2 µM
- GI50 (C32, Skin (Melanoma)): 15.5 µM
- IC50 (C32, Skin (Melanoma)): 19.2 µM
- EC50 [1]: 8.94 µM
- GI50 [1]: 9 µM
- IC50 [1]: 9.03 µM
- EC50 [2]: 12 µM
- GI50 [2]: 11.9 µM
- IC50 [2]: 12 µM
- EC50 (CA46, CA46, Lymphoma): 3.83 µM
- GI50 (CA46, CA46, Lymphoma): 3.82 µM
- IC50 (CA46, CA46, Lymphoma): 3.83 µM
- EC50 (CAKI-1, Caki-1, Kidney): 0.17 µM
- GI50 (CAKI-1, Caki-1, Kidney): > 30 µM
- IC50 (CAKI-1, Caki-1, Kidney): > 30 µM
- EC50 (CAKI-2, Caki-2, Kidney): 28.8 µM
- GI50 (CAKI-2, Caki-2, Kidney): 28.9 µM
- IC50 (CAKI-2, Caki-2, Kidney): 29.1 µM
- EC50 (CAL-27, Cal 27, Head and Neck): 7.64 µM
- GI50 (CAL-27, Cal 27, Head and Neck): 7.62 µM
- IC50 (CAL-27, Cal 27, Head and Neck): 7.64 µM
- EC50 [3]: 5.6 µM
- GI50 [3]: 5.78 µM
- IC50 [3]: 5.79 µM
- EC50 (CAMA-1, CAMA-1, Breast): > 30 µM
- GI50 (CAMA-1, CAMA-1, Breast): > 30 µM
- IC50 (CAMA-1, CAMA-1, Breast): > 30 µM
- EC50 (CAPAN-1, Capan-1, Pancreas): > 30 µM
- GI50 (CAPAN-1, Capan-1, Pancreas): > 30 µM
- IC50 (CAPAN-1, Capan-1, Pancreas): > 30 µM
- EC50 [4]: > 30 µM
- GI50 [4]: > 30 µM
- IC50 [4]: > 30 µM
- EC50 (CCRF-CEM, CCRFCEM, Leukemia): 11.5 µM
- GI50 (CCRF-CEM, CCRFCEM, Leukemia): 11.4 µM
- IC50 (CCRF-CEM, CCRFCEM, Leukemia): 11.5 µM
- EC50 (CEM/C1, CEM-C1, Leukemia): 3.26 µM
- GI50 (CEM/C1, CEM-C1, Leukemia): 3.26 µM
- IC50 (CEM/C1, CEM-C1, Leukemia): 3.26 µM
- EC50 (CFPAC-1, CFPAC-1, Pancreas): 12.3 µM
- GI50 (CFPAC-1, CFPAC-1, Pancreas): 13.4 µM
- IC50 (CFPAC-1, CFPAC-1, Pancreas): 13.5 µM
- EC50 [5]: 5.83 µM
- GI50 [5]: 5.81 µM
- IC50 [5]: 5.83 µM
- EC50 (CHL-1, CHL-1, Skin (Melanoma)): 14.3 µM
- GI50 (CHL-1, CHL-1, Skin (Melanoma)): 14.2 µM
- IC50 (CHL-1, CHL-1, Skin (Melanoma)): 14.3 µM
- EC50 [6]: 11.4 µM
- GI50 [6]: 11.1 µM
- IC50 [6]: 11.4 µM
- EC50 (CML-T1, CML-T1, Leukemia): 3.69 µM
- GI50 (CML-T1, CML-T1, Leukemia): 3.68 µM
- IC50 (CML-T1, CML-T1, Leukemia): 3.69 µM
- EC50 (COLO 201, Colo 201, Colon): 8.51 µM
- GI50 (COLO 201, Colo 201, Colon): 8.45 µM
- IC50 (COLO 201, Colo 201, Colon): 8.51 µM
- EC50 (COLO 205, Colo 205, Colon): 10.7 µM
- GI50 (COLO 205, Colo 205, Colon): 10.7 µM
- IC50 (COLO 205, Colo 205, Colon): 10.7 µM
- EC50 (COLO 320DM, Colon): 7.72 µM
- GI50 (COLO 320DM, Colon): 7.67 µM
- IC50 (COLO 320DM, Colon): 7.72 µM
- EC50 [7]: 11.6 µM
- GI50 [7]: 11.6 µM
- IC50 [7]: 11.6 µM
- EC50 [8]: 5.35 µM
- GI50 [8]: 4.93 µM
- IC50 [8]: 5.35 µM
- EC50 (COR-L23, COR-L23, Lung - NSCLC): 23.8 µM
- GI50 (COR-L23, COR-L23, Lung - NSCLC): 23.6 µM
- IC50 (COR-L23, COR-L23, Lung - NSCLC): 23.8 µM
- EC50 [9]: 4.76 µM
- GI50 [9]: 4.61 µM
- IC50 [9]: 4.76 µM
- EC50 (CRO-AP2, CRO-AP2, Lymphoma): 6.38 µM
- GI50 (CRO-AP2, CRO-AP2, Lymphoma): 6.36 µM
- IC50 (CRO-AP2, CRO-AP2, Lymphoma): 6.38 µM
- EC50 [10]: > 30 µM
- GI50 [10]: > 30 µM
- IC50 [10]: > 30 µM
- EC50 (Calu-1, Calu1, Lung - NSCLC): 13.9 µM
- GI50 (Calu-1, Calu1, Lung - NSCLC): 13.8 µM
- IC50 (Calu-1, Calu1, Lung - NSCLC): 13.9 µM
- EC50 (Calu-6, Calu6, Lung - NSCLC): 14.5 µM
- GI50 (Calu-6, Calu6, Lung - NSCLC): 15.7 µM
- IC50 (Calu-6, Calu6, Lung - NSCLC): 16.6 µM
